Patent US11111219B2, “Polysubstituted pyrimidines inhibiting the formation of prostaglandin E2, a method of production thereof and use thereof” (USTAV ORGANICKE CHEMIE A BIOCHEMIE AV CR, V.V.I., priority 2017, dated 2021)
“And” between values parts separate entries of the source, which are not always exact repeats. Identical values can stand only once.

Legend:
Format in all cases: cell-based
biosynthesis of PGE2 = experiment: Production of PGE2 in LPS-stimulated mouse peritoneal cells; conditions: for activity at 50 µM: Mus musculus, 5 h, compound 50 μmol·l^−1, with LPS 10 ng/ml, 5 hours, LPS alone = 100%, low values = strong inhibition, read-out: PGE2 remaining activity in % of LPS response (mean ± SEM); for IC50: concentration-effect experiments, 0.0004 to 25 μmol·l^−1, mouse peritoneal cells, LPS, read-out: PGE2 IC50, and 95% limits of confidence (in parentheses)
Protocol: Production of PGE2 was assayed in vitro in cultures of mouse peritoneal cells. The cells (2×10^6/mL) were stimulated with bacterial lipopolysaccharide (LPS, 10 ng/ml). Tested pyrimidine derivatives were applied at the concentration of 50 μmol.l^−1, concomitantly with LPS. Amount of PGE2 in cell supernatants was determined 5 hours after stimulation using the commercially available kit (R&D Systems). The effects of pyrimidines on PGE2 production were evaluated in percent of control values, i.e. those found after the action of LPS alone (100%). The data in Table 2 show the remaining activity; the low values thus indicate strong inhibition of PGE2 formation.
The concentrations required to inhibit PGE2 biosynthesis by 50% (so-called IC50) were determined by the analysis of concentration-effect experiments. For this purpose, the compounds were applied within the range of 0.0004 μmol.l^−1 až 25 μmol.l^−1.

mouse peritoneal cells = experiment: Cell viability, lactate dehydrogenase (LDH) assay; conditions: compound 50 μmol·l^−1, 5 hours
Protocol: Cell viability was determined using the lactate dehydrogenase assay (LDH kit, Sigma-Aldrich). The mouse peritoneal cells were cultured for 5 hours in the presence of tested compounds applied at the concentration of 50 μmol.l^−1. The effects of pyrimidines were compared with the viability of cells cultured in the absence of the compounds. The later was taken as a control 100% viability.

[1] = test system: production of nitric oxide (NO); experiment: Production of nitric oxide (NO) in LPS/IFN-γ-stimulated murine peritoneal cells (Griess reagent); conditions: Mus musculus; compound 50 μmol·l^−1, LPS 0.1 ng/ml + IFN-γ 5 ng/ml, nitrites at 24 h; LPS/IFN-γ alone = 100%; read-out: Production of NO in % of controls
Protocol: Similar to the PGE2 assay, the production of nitric oxide (NO) was followed under conditions in vitro using murine peritoneal cells (FIG. 1). The cells (2×10^6/ml) were cultured in presence of lipopolysaccharide (LPS, 0.1 ng/ml) and recombinant mouse interferon-γ (IFN-γ, 5 ng/ml). Effects of tested pyrimidine derivatives were screened at the concentration of 50 μmol.l^−1. The compounds were added concomitantly with LPS/IFN-γ. The concentration of nitrites in cell supernatants (a measure of NO production) was evaluated spectrophotometrically, 24 h after the priming stimuli. Griess reagent was used for this purpose. The effects of pyrimidines on NO production were evaluated in percent of control values, i.e those found after the action of LPS/IFN-γ alone (100%).

Compound	activity at 50 µM (biosynthesis of PGE2) [%]	Cell viability in % of untreated controls (LDH assay) (mouse peritoneal cells)	IC50 (biosynthesis of PGE2) [nM]	Inhibition of PGE2 production (in words) (biosynthesis of PGE2; compound 50 μmol·l^−1)	activity at 50 µM [1] [%]
CCCCc1c(-c2ccc(Cl)cc2)nc(N)nc1-c1ccc(OCc2ccccc2)cc1 [Compound 2d, 4-(4-(benzyloxy)phenyl)-5-butyl-6-(4-chlorophenyl)pyrimidin-2-amine]	4.1 ± 0.7	96.7 ± 2.2 (n = 4) %			
Nc1nc(-c2ccccc2)cc(-c2ccc(OCc3ccccc3)cc2)n1 [Compound 1d, 4-(4-(benzyloxy)phenyl)-6-phenylpyrimidin-2-amine]	0.7 ± 0.8	101.2 ± 0.7 (n = 4) %			
CCCCc1c(-c2ccccc2)nc(N)nc1-c1cc(C)c(OCc2cccc(Cl)c2)c(C)c1 [Compound 1o, 5-butyl-4-(4-((3-chlorobenzyl)oxy)-3,5-dimethylphenyl)-6-phenylpyrimidin-2-amine]	6.5 ± 0.4	102.8 ± 0.4 (n = 8) %			
CCCCc1c(-c2ccccc2)nc(N)nc1-c1ccc(OCc2ccccc2)cc1C [Compound 1k, 4-(4-(benzyloxy)-2-methylphenyl)-5-butyl-6-phenylpyrimidin-2-amine]	51.1 ± 0.8	103.2 ± 0.5 (n = 8) %			
CCCCc1c(-c2ccccc2)nc(N)nc1-c1ccc(OCC)cc1 [Compound 1a, 5-butyl-4-(4-ethoxyphenyl)-6-phenylpyrimidin-2-amine]	26.3 ± 0.1	104.6 ± 1.3 (n = 8) %			
CCCCc1c(-c2ccc(OC)cc2)nc(N)nc1-c1ccc(OCc2ccccc2)cc1 [Compound 2b, 4-(4-(benzyloxy)phenyl)-5-butyl-6-(4-methoxyphenyl)pyrimidin-2-amin]	10.5 ± 0.1	100.3 ± 1.2 (n = 4) %			
CCCCc1c(-c2ccccc2)nc(N)nc1-c1ccc(OCc2ccccc2)cc1 [Compound 1e, 4-(4-(benzyloxy)phenyl)-5-butyl-6-phenylpyrimidin-2-amine]			94		
CCCCc1c(-c2ccccc2)nc(N)nc1-c1cc(C)c(OCc2ccccc2Cl)c(C)c1 [Compound 1n, 5-butyl-4-(4-((2-chlorobenzyl)oxy)-3,5-dimethylphenyl)-6-phenylpyrimidin-2-amine]	7.1 ± 1.9	103.6 ± 0.3 (n = 8) %			
CCCCc1c(-c2ccc(OCc3ccccc3)cc2)nc(N)nc1-c1cccc(Cl)c1 [Compound 2c, 4-(4-(benzyloxy)phenyl)-5-butyl-6-(3-chlorophenyl)pyrimidin-2-amine]	12.6 ± 1.7	101.3 ± 2.0 (n = 4) %			
COc1ccc(COc2ccc(-c3cc(-c4ccccc4)nc(N)n3)cc2)cc1 [Compound 1g]	8.4 ± 3	99.6 ± 3.0 (n = 4) %			
CCCCc1c(-c2ccccc2)nc(N)nc1-c1ccc(OCc2ccc(OC)cc2)cc1 [Compound 1h, 5-butyl-4-(4-((4-methoxybenzyl)oxy)phenyl)-6-phenylpyrimidin-2-amine]	2 ± 1.5	104.2 ± 0.3 (n = 8) %	5400		
CCCCc1c(-c2ccccc2)nc(N)nc1-c1ccc(OCc2cccc3ccccc23)cc1 [Compound 1f, 5-butyl-4-(4-(naphthalen-1-ylmethoxy)phenyl)-6-phenylpyrimidin-2-amine]	26.3 ± 5.3	104.8 ± 0.4 (n = 8) %			
CCCCc1c(-c2ccc(OCc3ccccc3)cc2)nc(N)nc1-c1cccc(OC)c1 [Compound 2a, 4-(4-(benzyloxy)phenyl)-5-butyl-6-(3-methoxyphenyl)pyrimidin-2-amine]	10 ± 2	43.1% and 43.1 ± 8.4 (n = 4) %			
CCCCc1c(-c2ccccc2)nc(N)nc1-c1ccc(OCc2ccccc2)c(F)c1F [Compound 1m, 4-(4-(benzyloxy)-2,3-difluorophenyl)-5-butyl-6-phenylpyrimidin-2-amine]	0.03 ± 0.2	103.7 ± 0.4 (n = 8) %	6	completely inhibits	84
CCCCc1c(-c2ccccc2)nc(N)nc1-c1ccc(OCc2ccc(Cl)cc2)cc1 [Compound 1j, 5-butyl-4-(4-((4-chlorobenzyl)oxy)phenyl)-6-phenylpyrimidin-2-amine]	0.7 ± 0.5	101.2 ± 0.8 (n = 8) %	77		
Nc1nc(-c2ccccc2)cc(-c2ccc(OCc3ccccc3)c(F)c2F)n1 [Compound 1l, 4-(4-(benzyloxy)-2,3-difluorophenyl)-6-phenylpyrimidin-2-amine]	5.5 ± 0.3	102.6 ± 3.7 (n = 4) %			
CCCCc1c(-c2ccccc2)nc(N)nc1-c1ccc(OC(C)C)cc1 [Compound 1b, 5-butyl-4-(4-isopropoxyphenyl)-6-phenylpyrimidin-2-amine]	12.3 ± 0.5	71.2 ± 1.9 (n = 8) %			
Nc1nc(-c2ccccc2)cc(-c2ccc(OCc3ccc(Cl)cc3)cc2)n1 [Compound 1i, 4-(4-((4-chlorobenzyl)oxy)phenyl)-6-phenylpyrimidin-2-amine]		102.2 ± 4.1 (n = 4) %			
